# Measurements: US20240315992A1, “AMINOXY ACID-BASED ANTIBACTERIAL COMPOUNDS AND METHODS THEREOF” (The University of Hong Kong, priority 2023, published 2024)
# Experiments:
# MSSA ATCC 29213 = experiment: MIC by CLSI broth micro-dilution, MSSA ATCC 29213; format: cell-based; conditions: Staphylococcus aureus, read-out: Minimum inhibitory concentration
# Description: (§1) Aminoxy acids were synthesized by the standard peptide coupling procedures. Minimum inhibitory concentration was determined using CLSI broth micro-dilution method in 96-wells microtitre plates. Minimum inhibitory concentration is defined as the lowest concentration of the compound that inhibits visible growth of the bacteria. All experiments were performed three times. 24 compounds including aminoxy acid monomers and dipeptides have been identified to show toxicity against multidrug resistant Staphylococcus aureus Mu3 and summarized in Table 1. The minimum inhibitory concentration of compound 8 and compound 35 on other gram-positive bacteria was also evaluated and summarized in Table 2. […] As shown in FIGS. 3A-3B there are no observable hemolysis for compound 8 and compound 35 towards human red blood cell.
# (§2) Bacteria were streaked from the glycerol stock into BHI agar and were incubated overnight. Single colony was picked for the overnight culture in cation-adjusted Mueller Hinton broth (CAMH), LB or BHI. The overnight culture was sub-cultured and regrew to exponential phase for the experiment.
# (§3) MIC was determined by CLSI broth micro-dilution method in 96-wells microtitre plates. […] Optical density was recorded by DTX 880 multimode detector (Beckman Coulter, California, US). […]
# MRSA-USA300 = experiment: MIC by CLSI broth micro-dilution, MRSA-USA300; format: cell-based; conditions: Staphylococcus aureus, read-out: Minimum inhibitory concentration
# Description: as §1, §2, §3
# M. smegmatis mc^2155 = experiment: MIC by CLSI broth micro-dilution, M. smegmatis; format: cell-based, Mycobacterium smegmatis; conditions: Mycolicibacterium smegmatis; M. smegmatis mc^2155, BHI medium; read-out: Minimum inhibitory concentration
# Description: as §1, §2, §3
# NIH3T3 cells = experiment: Mammalian cell cytotoxicity assay (MTT), NIH3T3; format: cell-based; conditions: for IC50: Mus musculus, NIH3T3, MTT assay, 24 hours, read-out: IC50, toxicity towards mammalian cells NIH3T3; for toxicity against mammalian cell NIH3T3: at 16 folded MIC (50 μM compound 8, 12.5 μM compound 35)
# Description: NIH3T3 cells were cultured in DMEM supplemented with 10% fetal bovine serum (FBS), 100 U/ml penicillin and 0.1 mg/ml streptomycin. Cells were grown in treated culture flasks at 37° C. in a 5% CO2 humidified incubator and passaged every 2-3 days.
# In the treated culture dish, cells were washed by PBS and then trypsinized. DMEM was added to quench the reaction. Cells were centrifuged and resuspended into fresh DMEM. Cells were then seeded in 96-well microtitre plate (100 μL, 5000 cells per well) for 24 hours before addition of compounds. The compounds were two-fold serial diluted by DMSO in a DMSO-compatible 96-well plate. 1 μL of compound in DMSO is transferred into the 96-well microtitre preparation plate containing 100 μL DMEM medium. The medium in culture plate was removed and compounds in preparation plate were transferred to culture plate. Equal volume of DMSO was used as negative control.
# After 24 hours of incubation of cells, cell viability was measured by MTT assay. In MTT assay, 20 μL 5 mg/mL MTT solution in PBS was added to cell medium and cultured for 3 hours. The medium was then removed and 50 μL DMSO was added and cultured for 10 minutes. Absorbance at 595 nm was measured spectrophotometrically (Beckman Coulter DTX 880 Multimode Detector) and normalized to DMSO group. Biological replicates were performed.
# [1] = test system: Staphylococcus aureus ATCC 29213 persister; experiment: Killing of Staphylococcus aureus persister; format: cell-based; conditions: 10×MIC, persisters enriched with ciprofloxacin
# From the text: FIG. 4 is a line graph showing the killing kinetics of the compound 8 and compound 35 towards Staphylococcus aureus persister compared to the conventional antibiotics. […] Data were representative of 3 independent experiments±S.D.
# Persisters are the phenotypic variants of the normal bacteria with reduced metabolism. They highly tolerate to the conventional […]. Persisters was enriched by the addition of 100-fold minimum inhibitory concentration of bactericidal antibiotics ciprofloxacin to the stationary phase bacteria. After 24 hours' culture, ciprofloxacin was removed. Persisters were treated with compound 8, compound 35 or different conventional antibiotics.
# S. aureus ATCC 29213 cells were sub-cultured from an overnight culture in CAMH 1:100 for 24 hours at 37° C. with 250 rpm shaking speed. Persisters were prepared by addition of ciprofloxacin hydrochloride (25 μg/mL, 100×MIC in Staphylococcus aureus ATCC 29213) and cultured for 24 hours at 37° C. with 250 rpm shaking speed. Persisters were washed by PBS (12,000×g, 3 minutes) and resuspended in PBS+1% CAMH medium (same volume as original culture). 1 mL portions were aliquoted into fresh culture tubes, and different antibiotics or DMSO (1% maximum concentration) were added, followed by incubation at 37° C. with 250 rpm shaking speed. […]
# [2] = test system: Staphylococcus aureus ATCC 29213; experiment: Autolysis, optical density of culture; format: cell-based; conditions: 10×MIC, 24 hours
# Description: Staphylococcus aureus ATCC 29213 in CAMH was challenged with […] compounds 8 or compound 35. OD595 was measured after 24 hours. Data represented the mean±S.D. of biological triplicates. Statistical analysis was performed by unpaired t test in 95% confidence interval (*=p<0.05; **p<0.01; ***p<0.001; ****[…]).
# The overnight culture of Staphylococcus aureus ATCC 29213 was subcultured, regrown to exponential phase and then diluted to OD595=0.4. Bacteria were treated by 10×MIC of compound 8 and compound 35. At T=24 hour, OD595 was measured.
SMILES,MIC (MSSA ATCC 29213),MIC (MRSA-USA300),MIC (M. smegmatis mc^2155),IC50 (NIH3T3 cells),toxicity against mammalian cell NIH3T3 (NIH3T3 cells),bactericidal effect on Staphylococcus aureus persister [1],"optical density (OD595) of culture, accelerated autolysis [2]"
CC(C)C[C@H](ONC(=O)[C@@H](COCc1ccccc1)ONC(=O)c1cc(C(F)(F)F)cc(C(F)(F)F)c1)C(=O)Nc1ccccc1 [Compound 8],3.13 µM,3.13 µM,12.5 µM,> 50 µM,minimal toxicity,can eradicate the Staphylococcus aureus persister,reduction of the optical density
CC(C)C[C@H](ONC(=O)[C@@H](COCc1ccccc1)ONC(=O)c1cc(C(F)(F)F)cc(C(F)(F)F)c1)C(=O)Nc1ccc2c(c1)OC(F)(F)O2 [Compound 35],1.56 µM,3.13 µM,1.56 µM,> 50 µM,minimal toxicity,can eradicate the Staphylococcus aureus persister,reduction of the optical density
